Source: PubChem BioAssay AID1963959 (Molecular Pharmacology Branch, DTP, NCI, 2024)

Tested on: T-47D spheroids with HUVEC/MSC, viability
Test: Anticancer human tumor T-47D cell line growth inhibition [PI3K];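 further: spheroids exposed to agents for seven days before reading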;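 on viability, T/C: percent of DMSO vehicle control luminescence so 100% = untreated growth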
Settings: for IC50: curve of first compound; for viability, T/C: stronger effect = lower value
Procedure, shortened: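 Complex 3D spheroids (cancer cells + endothelial HUVEC + mesenchymal stem cells); drug pairs of targeted agent x inavolisib/alpelisib/duvelisib/copanlisib; half-log series from ~Cmax, max 10 microM if Cmax unknown; endpoint viability.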

[1] = second compound 0.00316 µM, first compound 0.0316 µM
[2] = second compound 0.00316 µM, first compound 0.1 µM
[3] = second compound 0.00316 µM, first compound 0.316 µM
[4] = second compound 0.00316 µM, first compound 1 µM
[5] = second compound 0.01 µM, first compound 0.0316 µM
[6] = second compound 0.01 µM, first compound 0.1 µM
[7] = second compound 0.01 µM, first compound 0.316 µM
[8] = second compound 0.01 µM, first compound 1 µM
[9] = second compound 0.0316 µM, first compound 0.0316 µM
[10] = second compound 0.0316 µM, first compound 0.1 µM
[11] = second compound 0.0316 µM, first compound 0.316 µM
[12] = second compound 0.0316 µM, first compound 1 µM
[13] = second compound 0.1 µM, first compound 0.0316 µM
[14] = second compound 0.1 µM, first compound 0.1 µM
[15] = second compound 0.1 µM, first compound 0.316 µM
[16] = second compound 0.1 µM, first compound 1 µM
[17] = second compound 0.316 µM, first compound 0.0316 µM
[18] = second compound 0.316 µM, first compound 0.1 µM
[19] = second compound 0.316 µM, first compound 0.316 µM
[20] = second compound 0.316 µM, first compound 1 µM
[21] = second compound 1 µM, first compound 0.0316 µM
[22] = second compound 1 µM, first compound 0.1 µM
[23] = second compound 1 µM, first compound 0.316 µM
[24] = second compound 1 µM, first compound 1 µM

`CCN1CCN(Cc2ccc(Nc3ncc(F)c(-c4cc(F)c5nc(C)n(C(C)C)c5c4)n3)nc2)CC1` + COc1c(OCCCN2CCOCC2)ccc2c3n(c(=NC(=O)c4cnc(N)nc4)nc12)CCN3 was tested. Which IC50 (second compound 0.00316 µM) did it give?
Its IC50 is greater than 1000 nM.

What about the IC50 (second compound 0.01 µM) of the same compound?
Its IC50 is greater than 1000 nM.

And the IC50 (second compound 0.0316 µM)?
Its IC50 is 8.3 nM.

What about the IC50 (second compound 0.1 µM) of the same compound?
The IC50 was less than 3.16 nM.

And the IC50 (second compound 0.316 µM)?
The IC50 was less than 3.16 nM.

What about the IC50 (second compound 1 µM) of the same compound?
Its IC50 is less than 3.16 nM.

What about the viability, T/C (second compound 0.00316 µM, first compound 0.00316 µM) of the same compound?
Its viability, T/C is 81.5%.

What about the viability, T/C (second compound 0.00316 µM, first compound 0.01 µM) of the same compound?
Its viability, T/C is 77.9%.

And the viability, T/C [1]?
Its viability, T/C is 83.2%.

What about the viability, T/C [2] of the same compound?
Its viability, T/C is 74.8%.

What about the viability, T/C [3] of the same compound?
The viability, T/C was 73.2%.

What about the viability, T/C [4] of the same compound?
Its viability, T/C is 88.6%.

What about the viability, T/C (second compound 0.01 µM, first compound 0.00316 µM) of the same compound?
Its viability, T/C is 99.1%.

And the viability, T/C (second compound 0.01 µM, first compound 0.01 µM)?
Its viability, T/C is 75.3%.

What about the viability, T/C [5] of the same compound?
The viability, T/C was 70.5%.

And the viability, T/C [6]?
Its viability, T/C is 71.5%.

What about the viability, T/C [7] of the same compound?
Its viability, T/C is 67.6%.

What about the viability, T/C [8] of the same compound?
Its viability, T/C is 72.5%.

And the viability, T/C (second compound 0.0316 µM, first compound 0.00316 µM)?
The viability, T/C was 64%.

What about the viability, T/C (second compound 0.0316 µM, first compound 0.01 µM) of the same compound?
The viability, T/C was 47.8%.

And the viability, T/C [9]?
The viability, T/C was 41.2%.

What about the viability, T/C [10] of the same compound?
The viability, T/C was 43.4%.

And the viability, T/C [11]?
Its viability, T/C is 44.6%.

And the viability, T/C [12]?
Its viability, T/C is 56.5%.

What about the viability, T/C (second compound 0.1 µM, first compound 0.00316 µM) of the same compound?
Its viability, T/C is 41.3%.

What about the viability, T/C (second compound 0.1 µM, first compound 0.01 µM) of the same compound?
The viability, T/C was 25.1%.

And the viability, T/C [13]?
The viability, T/C was 27.7%.

And the viability, T/C [14]?
The viability, T/C was 24.4%.

What about the viability, T/C [15] of the same compound?
The viability, T/C was 29%.

And the viability, T/C [16]?
Its viability, T/C is 45.3%.

And the viability, T/C (second compound 0.316 µM, first compound 0.00316 µM)?
Its viability, T/C is 13%.

And the viability, T/C (second compound 0.316 µM, first compound 0.01 µM)?
The viability, T/C was 12.3%.

What about the viability, T/C [17] of the same compound?
The viability, T/C was 14.8%.

And the viability, T/C [18]?
Its viability, T/C is 16.3%.

What about the viability, T/C [19] of the same compound?
The viability, T/C was 23.4%.

What about the viability, T/C [20] of the same compound?
The viability, T/C was 34.4%.

What about the viability, T/C (second compound 1 µM, first compound 0.00316 µM) of the same compound?
Its viability, T/C is 6.17%.

What about the viability, T/C (second compound 1 µM, first compound 0.01 µM) of the same compound?
The viability, T/C was 5.48%.

And the viability, T/C [21]?
The viability, T/C was 7.16%.

What about the viability, T/C [22] of the same compound?
Its viability, T/C is 6.14%.

What about the viability, T/C [23] of the same compound?
Its viability, T/C is 12.2%.

What about the viability, T/C [24] of the same compound?
The viability, T/C was 24.2%.

What does the source list for `CC(Cn1ccc(-c2ccc(C#N)c(Cl)c2)n1)NC(=O)c1cc(C(C)O)[nH]n1` (centres undefined) + COc1c(OCCCN2CCOCC2)ccc2c3n(c(=NC(=O)c4cnc(N)nc4)nc12)CCN3?
IC50 (second compound 0.00316 µM): > 10000 nM; IC50 (second compound 0.01 µM): > 10000 nM; IC50 (second compound 0.0316 µM): 8440 nM; IC50 (second compound 0.1 µM): < 31.6 nM; IC50 (second compound 0.316 µM): < 31.6 nM; IC50 (second compound 1 µM): < 31.6 nM; viability, T/C [1]: 89%; viability, T/C [2]: 96%; viability, T/C [3]: 96.1%; viability, T/C [4]: 88%; viability, T/C (second compound 0.00316 µM, first compound 3.16 µM): 104%; viability, T/C (second compound 0.00316 µM, first compound 10 µM): 75.3%; viability, T/C [5]: 103%; viability, T/C [6]: 83.3%; viability, T/C [7]: 101%; viability, T/C [8]: 93.5%; viability, T/C (second compound 0.01 µM, first compound 3.16 µM): 95.4%; viability, T/C (second compound 0.01 µM, first compound 10 µM): 59.5%; viability, T/C [9]: 69.2%; viability, T/C [10]: 77.4%; viability, T/C [11]: 74.7%; viability, T/C [12]: 82.1%; viability, T/C (second compound 0.0316 µM, first compound 3.16 µM): 79%; viability, T/C (second compound 0.0316 µM, first compound 10 µM): 45.7%; viability, T/C [13]: 38.9%; viability, T/C [14]: 39.2%; viability, T/C [15]: 41.5%; viability, T/C [16]: 45.7%; viability, T/C (second compound 0.1 µM, first compound 3.16 µM): 40.7%; viability, T/C (second compound 0.1 µM, first compound 10 µM): 33.9%; viability, T/C [17]: 14.8%; viability, T/C [18]: 15.9%; viability, T/C [19]: 15.3%; viability, T/C [20]: 14.4%; viability, T/C (second compound 0.316 µM, first compound 3.16 µM): 18.7%; viability, T/C (second compound 0.316 µM, first compound 10 µM): 20.4%; viability, T/C [21]: 8.77%; viability, T/C [22]: 8.22%; viability, T/C [23]: 7.63%; viability, T/C [24]: 5.85%; viability, T/C (second compound 1 µM, first compound 3.16 µM): 7.24%; viability, T/C (second compound 1 µM, first compound 10 µM): 3.67%
